# Source: publication PMC9424906 (Frontiers in Pharmacology, 2022)
# Legend:
# MDR1 [1] = assay: in vitro; conditions: dog, MDCK-MDR1, 5 µM; for Papp A→B at 2 h, 5 µM: MDCK-MDR1, pH 7.4, Papp A to B; for Papp B→A at 2 h, 5 µM: MDCK-MDR1, pH 7.4, Papp B to A
# in vitro [2] = conditions: human, Caco-2, pH 7.4
# MDR1 [3] = assay: in vitro; conditions: human, Caco-2, pH 7.4
# BCRP [4] = assay: in vitro; conditions: human, Caco-2, pH 7.4
# in vitro [5] = assay type: in vitro ADME; conditions: both sexes, human, plasma
# Procedure: Plasma protein binding experiments were carried out in mixed-gender human plasma, male Sprague-Dawley rat plasma, male CD-1 plasma, male Beagle dog plasma, and male Cynomolgus monkey plasma (BioIVT) using a Pierce Rapid Equilibration Dialysis (RED) device. […] Blank phosphate-buffered saline (PBS) (500 μL) was added to each corresponding receiver chamber. After 4 h of incubation (with shaking at 37°C), both sides were aliquoted, and matrix was normalized. Samples were centrifuged at 1000 g for 10 min after adding two volumes of ACN with IS. Supernatants were diluted 1:1 with water and analyzed with LC-MS/MS.
# Plasma Protein binding was calculated as follows:
# % Bound = [(PARR in Donor–PARR in Receiver)/(PARR in Donor)] × 100.
# PARR = peak area response ratio to internal standard, including applicable dilution factors.
# [6] = Pharmacokinetics in Beagle dogs; assay type: in vivo, dog; conditions: for half-life: plasma
# Procedure: Adult male C57BL/6 mice and Sprague Dawley rats were purchased from Charles River Laboratory (Wilmington, MA). PK studies for mice and rats were conducted at NIH animal facility (Bethesda, MD). In-life dog and monkey PK studies were conducted at Absorption System (San Diego, CA) and Frontage Labs (Concord, OH), respectively. Dogs and monkeys were fasted overnight prior to dose administrations. All experimental procedures were reviewed and approved by the Animal Care and Use Committee (ACUC) of the NIH Division of Veterinary Resources (DVR) or CRO labs for in-life studies.
# The dosing volume was 1.0 mL/kg for both groups. Plasma (both IV and PO groups) and urine (IV group) samples were collected over a period of 48 h.
# Blood samples from all groups and species were collected in K2EDTA tubes and stored on wet ice pending processing. Blood was centrifuged at 2200 g at 4°C for 10 min to isolate plasma. All samples were stored at -80°C until analysis.
# Phoenix WinNonlin, version 8.1 (Certara, St. Louis, MO), was used to perform PK analysis with the non-compartmental approach (Models 200 and 201 for PO and IV datasets). The area under the plasma concentration vs. time curve (AUC) was calculated using the linear trapezoidal method. The terminal rate constant (λ) was obtained from the slope of at least three data points of the apparent terminal phase of the log-linear plasma concentration vs. time curve when available. AUC0–∞ was estimated as the sum of the AUC0–t (where t is the time of the last measurable concentration) and Ct/λ. The apparent terminal half-life (t½) was calculated as 0.693/λ. Bioavailability (F) was calculated using ratios of dose normalized AUC (AUC/Dose) obtained from PO and IV PK studies.
# BCRP [7] = biological target: T1, BCRP (Homo sapiens, UniProt Q9UNQ0); assay: Bidirectional transport in MDCK-BCRP monolayers; assay type: in vitro ADME; conditions: dog, MDCK-BCRP, 5 µM
# T1 construct: host or cells: MDCK (BCRP-MDCK)
# T1 sequence (Q9UNQ0 1-655): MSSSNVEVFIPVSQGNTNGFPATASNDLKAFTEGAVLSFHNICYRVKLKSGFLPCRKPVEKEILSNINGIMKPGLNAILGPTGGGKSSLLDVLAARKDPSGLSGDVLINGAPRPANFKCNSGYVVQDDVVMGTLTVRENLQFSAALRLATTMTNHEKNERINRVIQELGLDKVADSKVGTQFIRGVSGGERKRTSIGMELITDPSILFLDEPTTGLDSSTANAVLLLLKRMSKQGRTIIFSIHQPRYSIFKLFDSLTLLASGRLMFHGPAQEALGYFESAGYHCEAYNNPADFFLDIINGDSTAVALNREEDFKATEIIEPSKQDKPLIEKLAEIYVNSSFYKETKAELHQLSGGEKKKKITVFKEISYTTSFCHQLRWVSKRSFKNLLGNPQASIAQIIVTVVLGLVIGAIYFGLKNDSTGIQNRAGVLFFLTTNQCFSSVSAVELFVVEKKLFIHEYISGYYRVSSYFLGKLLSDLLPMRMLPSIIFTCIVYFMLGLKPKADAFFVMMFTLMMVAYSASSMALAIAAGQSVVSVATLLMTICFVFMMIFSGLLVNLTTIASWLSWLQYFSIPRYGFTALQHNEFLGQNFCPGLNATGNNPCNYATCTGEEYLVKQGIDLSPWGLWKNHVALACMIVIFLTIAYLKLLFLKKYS
# Procedure: Caco-2 (American Type Culture Collection), MDR1-MDCK (NIH), and BCRP-MDCK (transfected by Absorption Systems) cell monolayers were grown to confluence on collagen-coated, microporous membranes in 12-well assay plates. Caco-2 cells were cultured for 27 days, MDCK-MDR1 and MDCK-BCRP cells were cultured for 8 days prior to experiments. […] The experiment was carried out in Hanks’ balanced salt solution (HBSS) containing 10 mM HEPES and 15 mM glucose at pH 7.4. HBSS in the receiver chamber also contained 1% bovine serum albumin. Cells were first pre-incubated for 0.5 h in HBSS with or without the specific inhibitor (1 µM valspodar or 0.5 µM Ko143 for MDR1 and BCRP, respectively). […] Cell monolayers were dosed on the apical side (A to B) or basolateral side (B to A) and incubated at 37°C with 5% CO2 in a humidified incubator. Samples were taken from the donor and receiver chambers at 2 h. Each experiment was performed in duplicate. All samples were assayed by LC-MS/MS. The apparent permeability (Papp) and percent recovery were calculated as described previously ([Katoh et al., 2006]; [Xia et al., 2006]; [Li et al., 2008]).
# ENT1 = ENT1 (Homo sapiens, UniProt Q99808); assay: Nucleoside transporter uptake, ENT1-transfected MDCK cells
# [8] = male, beagle, dog, in vivo, iv, 2 mg/kg
# [9] = male, beagle, dog, in vivo, po, 5 mg/kg
# [10] = pH 7.4, with Ko143 0.5 µM, 0.5 µM Ko143
# Chain of ENT1 (Q99808 whole entry): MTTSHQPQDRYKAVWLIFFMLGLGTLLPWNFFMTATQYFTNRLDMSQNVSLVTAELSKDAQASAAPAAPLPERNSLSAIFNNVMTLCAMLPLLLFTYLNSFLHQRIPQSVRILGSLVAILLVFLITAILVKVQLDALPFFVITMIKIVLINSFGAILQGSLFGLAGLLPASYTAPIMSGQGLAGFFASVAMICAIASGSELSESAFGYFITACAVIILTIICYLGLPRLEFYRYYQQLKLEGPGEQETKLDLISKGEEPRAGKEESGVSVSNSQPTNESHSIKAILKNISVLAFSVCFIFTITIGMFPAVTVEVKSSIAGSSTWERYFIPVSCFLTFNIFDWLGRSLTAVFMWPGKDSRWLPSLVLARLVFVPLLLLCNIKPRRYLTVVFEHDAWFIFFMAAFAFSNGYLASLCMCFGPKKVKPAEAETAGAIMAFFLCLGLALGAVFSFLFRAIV
compound,measurement,setting,value
N#C[C@@]1(c2ccc3c(N)ncnn23)O[C@H](CO)[C@@H](O)[C@H]1O [GS-441524],"Papp A→B at 2 h, 5 µM",MDR1 [1]; 1 µM Valspodar,0.484 ×10⁻⁶ cm/s
same,"Papp A→B at 2 h, 5 µM",MDR1 [1]; no inhibitor,0.158 ×10⁻⁶ cm/s
same,"Papp B→A at 2 h, 5 µM",MDR1 [1]; 1 µM Valspodar,0.468 ×10⁻⁶ cm/s
same,"Papp B→A at 2 h, 5 µM",MDR1 [1]; no inhibitor,0.521 ×10⁻⁶ cm/s
same,"Papp A→B at 2 h, 5 µM",in vitro [2],0.099 ×10⁻⁶ cm/s
same,"Papp B→A at 2 h, 5 µM",in vitro [2],0.971 ×10⁻⁶ cm/s
same,"Papp A→B at 2 h, 5 µM",MDR1 [3],0.16 ×10⁻⁶ cm/s
same,"Papp B→A at 2 h, 5 µM",MDR1 [3],0.79 ×10⁻⁶ cm/s
same,"Papp A→B at 2 h, 5 µM",BCRP [4],0.229 ×10⁻⁶ cm/s
same,"Papp B→A at 2 h, 5 µM",BCRP [4],0.267 ×10⁻⁶ cm/s
same,"fraction unbound at 4 h, 10 µM",in vitro [5],~0.78
same,t1/2,"[6]; Dog, PO 5 mg/kg, 5 mg/kg",4.1 ± 1.1 h
same,Vd,"[6]; male, Beagle, dog, in vivo, iv, 2 mg/kg, Vdss",0.9 L/kg
same,half-life,"[6]; male, Beagle, dog, iv, 2 mg/kg, IV 2 mg/kg",~4 h
same,half-life,"[6]; male, Beagle, dog, po, 5 mg/kg, PO 5 mg/kg",~4 h
same,Mean urinary excretion of unchanged parent drug,[6]; [8],~64%
same,clearance,[6]; [8],4.1 ± 0.7 mL/min/kg
same,Cmax,[6]; [9],6010 ng/mL
same,Tmax,[6]; [9],0.28 ± 0.19 h
same,bioavailability,[6]; [9],85 ± 17%
same,AUC(0-inf),"[6]; male, beagle, in vivo, Dog, PO 5 mg/kg",19000 ng·h/mL
same,"Papp A→B at 2 h, 5 µM",BCRP [7]; [10],< 0.198 ×10⁻⁶ cm/s
same,"Papp B→A at 2 h, 5 µM",BCRP [7]; [10],< 0.281 ×10⁻⁶ cm/s
same,"Papp A→B at 2 h, 5 µM","BCRP [7]; pH 7.4, no inhibitor",< 0.197 ×10⁻⁶ cm/s
same,"Papp B→A at 2 h, 5 µM","BCRP [7]; pH 7.4, no inhibitor",0.385 ×10⁻⁶ cm/s
same,Inhibition of uptake by reference inhibitor,"ENT1; ENT1-transfected cells, reference inhibitor NBMPR, 30 µM GS-441524",92.3%
same,Substrate of ENT1,ENT1; MDCK,substrate
